# Assay results reported in US20240409585A1, “MACROCYCLIC IMMUNOMODULATORS” (priority 2021, published 2024).
# Bridge positions count the residues as written; N and C are the ends. Square brackets hold non-standard residues; d marks the D form. Peptide text beside a SMILES is read from it. * marks the point of attachment. Tyr(3-NO2) = N[C@@H](Cc1ccc(O)c([N+](=O)[O-])c1)C(=O)O; Phe(4-COOH) = N[C@@H](Cc1ccc(C(=O)O)cc1)C(=O)O; Phe(4-CH2NH2) = NCc1ccc(C[C@H](N)C(=O)O)cc1; Bip = N[C@@H](Cc1ccc(-c2ccccc2)cc1)C(=O)O; Phe(3-Cl) = N[C@@H](Cc1cccc(Cl)c1)C(=O)O; Phe(3-F) = N[C@@H](Cc1cccc(F)c1)C(=O)O; 2Pal = N[C@@H](Cc1ccccn1)C(=O)O; 3Pal = N[C@@H](Cc1cccnc1)C(=O)O; 4Pal = N[C@@H](Cc1ccncc1)C(=O)O; Cit = NC(=O)NCCC[C@H](N)C(=O)O; Carboxymethyl = O=C(O)C*; NMeA = CN[C@@H](C)C(=O)O; Dab = NCC[C@H](N)C(=O)O
# Biological target: T1, PE-labeled human PD-L1-Ig binding to Jurkat cell line over-expressing human PD-1 (Jurkat-PD-1) (Homo sapiens, UniProt Q15116)
# T1 construct: expressed in transfected cells; host or cells: Jurkat
# Experiment: Jurkat-PD-1 Cell Binding High-Content Screening Assay (CBA): Method 1
# Details: Jurkat-hPD-1 cells, PE-labeled PD-L1-Ig 20 nM final; read-out: Jurkat HPDL1 PD1 IC50 (uM) (Method 1)
# T1 sequence (Q15116 25-288): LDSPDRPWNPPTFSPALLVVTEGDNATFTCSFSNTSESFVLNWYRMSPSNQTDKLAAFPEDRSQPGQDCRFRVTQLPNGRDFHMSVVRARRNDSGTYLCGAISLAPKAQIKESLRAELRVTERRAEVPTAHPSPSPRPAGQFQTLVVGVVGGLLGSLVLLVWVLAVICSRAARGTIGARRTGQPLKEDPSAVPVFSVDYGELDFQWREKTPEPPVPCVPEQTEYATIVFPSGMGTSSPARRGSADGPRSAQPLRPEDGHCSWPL
row,IC50,Structure (SMILES)
1,0.06 µM,CC(C)C[C@@H]1NC(=O)[C@H](CCN)NC(=O)[C@@H](CC(C)C)NC(=O)[C@H](C)N(C)C(=O)[C@H](CCCNC(N)=O)NC(=O)[C@H](Cc2ccc(-c3ccccc3)cc2)NC(=O)[C@H](C(C)C)NC(=O)[C@H](Cc2c[nH]c3ccccc23)NC(=O)[C@H](CC(=O)O)NC(=O)[C@H](Cc2cccc(F)c2)NC(=O)[C@H](CC(N)=O)NC(=O)CSC[C@@H](C(=O)N[C@@H](C)C(N)=O)NC(=O)[C@H]([C@@H](C)O)NC(=O)[C@H](C(C)C)NC1=O [Compound 1315] ({CH2CO}-N[Phe(3-F)]DWV[Bip][Cit][NMeA][dL][Dab]LVTCA-NH2; thioether N-14)
2,0.05 µM,CC(C)C[C@@H]1NC(=O)[C@H](CCN)NC(=O)[C@@H](CC(C)C)NC(=O)[C@H](C)N(C)C(=O)[C@H](CCCNC(=N)N)NC(=O)[C@H](Cc2ccc(-c3ccccc3)cc2)NC(=O)[C@H](C(C)C)NC(=O)[C@H](Cc2c[nH]c3ccccc23)NC(=O)[C@H](CC(=O)O)NC(=O)[C@H](Cc2cccc(Cl)c2)NC(=O)[C@H](CC(N)=O)NC(=O)CSC[C@@H](C(=O)N[C@@H](C)C(N)=O)NC(=O)[C@H]([C@@H](C)O)NC(=O)[C@H](C(C)C)NC1=O [Compound 1316] ({CH2CO}-N[Phe(3-Cl)]DWV[Bip]R[NMeA][dL][Dab]LVTCA-NH2; thioether N-14)
3,0.04 µM,CC(C)C[C@@H]1NC(=O)[C@H](CCN)NC(=O)[C@@H](CC(C)C)NC(=O)[C@H](C)N(C)C(=O)[C@H](CCCNC(N)=O)NC(=O)[C@H](Cc2ccc(-c3ccccc3)cc2)NC(=O)[C@H](C(C)C)NC(=O)[C@H](Cc2c[nH]c3ccccc23)NC(=O)[C@H](CC(=O)O)NC(=O)[C@H](Cc2ccc(C(=O)O)cc2)NC(=O)[C@H](CC(N)=O)NC(=O)CSC[C@@H](C(=O)N[C@@H](C)C(N)=O)NC(=O)[C@H]([C@@H](C)O)NC(=O)[C@H](C(C)C)NC1=O [Compound 1317] ({CH2CO}-N[Phe(4-COOH)]DWV[Bip][Cit][NMeA][dL][Dab]LVTCA-NH2; thioether N-14)
4,0.02 µM,CC(C)C[C@@H]1NC(=O)[C@H](CCN)NC(=O)[C@@H](CC(C)C)NC(=O)[C@H](C)N(C)C(=O)[C@H](CCCNC(N)=O)NC(=O)[C@H](Cc2ccc(-c3ccccc3)cc2)NC(=O)[C@H](C(C)C)NC(=O)[C@H](Cc2c[nH]c3ccccc23)NC(=O)[C@H](CC(=O)O)NC(=O)[C@H](Cc2cccnc2)NC(=O)[C@H](CC(N)=O)NC(=O)CSC[C@@H](C(=O)N[C@@H](C)C(N)=O)NC(=O)[C@H]([C@@H](C)O)NC(=O)[C@H](C(C)C)NC1=O [Compound 1318] ({CH2CO}-N[3Pal]DWV[Bip][Cit][NMeA][dL][Dab]LVTCA-NH2; thioether N-14)
5,0.04 µM,CC(C)C[C@@H]1NC(=O)[C@H](CCN)NC(=O)[C@@H](CC(C)C)NC(=O)[C@H](C)N(C)C(=O)[C@H](CCCNC(N)=O)NC(=O)[C@H](Cc2ccc(-c3ccccc3)cc2)NC(=O)[C@H](C(C)C)NC(=O)[C@H](Cc2c[nH]c3ccccc23)NC(=O)[C@H](CC(=O)O)NC(=O)[C@H](Cc2ccc(O)c([N+](=O)[O-])c2)NC(=O)[C@H](CC(N)=O)NC(=O)CSC[C@@H](C(=O)N[C@@H](C)C(N)=O)NC(=O)[C@H]([C@@H](C)O)NC(=O)[C@H](C(C)C)NC1=O [Compound 1319] ({CH2CO}-N[Tyr(3-NO2)]DWV[Bip][Cit][NMeA][dL][Dab]LVTCA-NH2; thioether N-14)
6,0.02 µM,CC(C)C[C@@H]1NC(=O)[C@H](CCN)NC(=O)[C@@H](CC(C)C)NC(=O)[C@H](C)N(C)C(=O)[C@H](CCCNC(N)=O)NC(=O)[C@H](Cc2ccc(-c3ccccc3)cc2)NC(=O)[C@H](C(C)C)NC(=O)[C@H](Cc2c[nH]c3ccccc23)NC(=O)[C@H](CC(=O)O)NC(=O)[C@H](Cc2ccncc2)NC(=O)[C@H](CC(N)=O)NC(=O)CSC[C@@H](C(=O)N[C@@H](C)C(N)=O)NC(=O)[C@H]([C@@H](C)O)NC(=O)[C@H](C(C)C)NC1=O [Compound 1320] ({CH2CO}-N[4Pal]DWV[Bip][Cit][NMeA][dL][Dab]LVTCA-NH2; thioether N-14)
7,0.08 µM,CC(C)C[C@@H]1NC(=O)[C@H](CCN)NC(=O)[C@@H](CC(C)C)NC(=O)[C@H](C)N(C)C(=O)[C@H](CCCNC(N)=O)NC(=O)[C@H](Cc2ccc(-c3ccccc3)cc2)NC(=O)[C@H](C(C)C)NC(=O)[C@H](Cc2c[nH]c3ccccc23)NC(=O)[C@H](CC(=O)O)NC(=O)[C@H](Cc2ccc(OCC(=O)O)cc2)NC(=O)[C@H](CC(N)=O)NC(=O)CSC[C@@H](C(=O)N[C@@H](C)C(N)=O)NC(=O)[C@H]([C@@H](C)O)NC(=O)[C@H](C(C)C)NC1=O [Compound 1321] ({CH2CO}-NY(Carboxymethyl)DWV[Bip][Cit][NMeA][dL][Dab]LVTCA-NH2; thioether N-14)
8,0.02 µM,CC(C)C[C@@H]1NC(=O)[C@H](CCN)NC(=O)[C@@H](CC(C)C)NC(=O)[C@H](C)N(C)C(=O)[C@H](CCCNC(N)=O)NC(=O)[C@H](Cc2ccc(-c3ccccc3)cc2)NC(=O)[C@H](C(C)C)NC(=O)[C@H](Cc2c[nH]c3ccccc23)NC(=O)[C@H](CC(=O)O)NC(=O)[C@H](Cc2ccc(CN)cc2)NC(=O)[C@H](CC(N)=O)NC(=O)CSC[C@@H](C(=O)N[C@@H](C)C(N)=O)NC(=O)[C@H]([C@@H](C)O)NC(=O)[C@H](C(C)C)NC1=O [Compound 1322] ({CH2CO}-N[Phe(4-CH2NH2)]DWV[Bip][Cit][NMeA][dL][Dab]LVTCA-NH2; thioether N-14)
9,0.03 µM,CC(C)C[C@@H]1NC(=O)[C@H](CCN)NC(=O)[C@@H](CC(C)C)NC(=O)[C@H](C)N(C)C(=O)[C@H](CCCNC(N)=O)NC(=O)[C@H](Cc2ccc(-c3ccccc3)cc2)NC(=O)[C@H](C(C)C)NC(=O)[C@H](Cc2c[nH]c3ccccc23)NC(=O)[C@H](CC(=O)O)NC(=O)[C@H](Cc2ccc(O)cc2)NC(=O)[C@H](Cc2ccc(OCC(=O)O)cc2)NC(=O)CSC[C@@H](C(=O)N[C@@H](C)C(N)=O)NC(=O)[C@H]([C@@H](C)O)NC(=O)[C@H](C(C)C)NC1=O [Compound 1324] ({CH2CO}-Y(Carboxymethyl)YDWV[Bip][Cit][NMeA][dL][Dab]LVTCA-NH2; thioether N-14)
10,0.02 µM,CC(C)C[C@@H]1NC(=O)[C@H](CCN)NC(=O)[C@@H](CC(C)C)NC(=O)[C@H](C)N(C)C(=O)[C@H](CCCNC(N)=O)NC(=O)[C@H](Cc2ccc(-c3ccccc3)cc2)NC(=O)[C@H](C(C)C)NC(=O)[C@H](Cc2c[nH]c3ccccc23)NC(=O)[C@H](CC(=O)O)NC(=O)[C@H](Cc2ccc(O)cc2)NC(=O)[C@H](Cc2ccc(C(=O)O)cc2)NC(=O)CSC[C@@H](C(=O)N[C@@H](C)C(N)=O)NC(=O)[C@H]([C@@H](C)O)NC(=O)[C@H](C(C)C)NC1=O [Compound 1326] ({CH2CO}-[Phe(4-COOH)]YDWV[Bip][Cit][NMeA][dL][Dab]LVTCA-NH2; thioether N-14)
11,0.08 µM,CC(C)C[C@@H]1NC(=O)[C@H](CCN)NC(=O)[C@@H](CC(C)C)NC(=O)[C@H](C)N(C)C(=O)[C@H](CCCNC(N)=O)NC(=O)[C@H](Cc2ccc(-c3ccccc3)cc2)NC(=O)[C@H](C(C)C)NC(=O)[C@H](Cc2c[nH]c3ccccc23)NC(=O)[C@H](CC(=O)O)NC(=O)[C@H](Cc2ccc(O)cc2)NC(=O)[C@H](Cc2ccccn2)NC(=O)CSC[C@@H](C(=O)N[C@@H](C)C(N)=O)NC(=O)[C@H]([C@@H](C)O)NC(=O)[C@H](C(C)C)NC1=O [Compound 1327] ({CH2CO}-[2Pal]YDWV[Bip][Cit][NMeA][dL][Dab]LVTCA-NH2; thioether N-14)
